Series [1] concerns the target 20-HETE producing enzymes, human kidney microsome. Put plainly: Inhibition test against 20-HETE producing enzymes using human kidney microsomes (LC-MS/MS). The series is classed as biochemical. To be noted: for IC50: human kidney microsome 250 μg/mL protein, 20 μM arachidonic acid, 37° C. 45 minutes, LC-MS/MS; for inhibitory activities against 20-HETE producing enzymes compared to compound A and compound B: comparison with compound A and compound B of WO03/022821, human kidney microsomes. As to the method: (1) Inhibition Test for Each Compound of the Present Invention Against 20-HETE Producing Enzymes Using Human Kidney Microsomes
The reaction solution containing each compound [final concentration of 100 mM, KPO4 (pH 7.4), 20 μM Arachidonic acid, 4 mM NADPH] was added to the human kidney microsome (250 μg/mL protein). Following this, the microsome was left to stand at 37° C. for 45 minutes to perform 20-HETE producing reaction. After adding formic acid to stop the reaction, 9 times amount of acetonitrile was added, and deproteinization was carried out by centrifugation (1000 rpm, 4° C., 10 minutes). After that, the peak area value of 20-HETE was measured using a liquid chromatograph-tandem mass spectrometer (LC-MS/MS), and by using that value, the percent inhibition of 20-HETE producing enzyme (%) was calculated according to the equation described below, and the 50% inhibitory concentration (IC50 value) for each compound was calculated. Percent inhibition of 20-HETE producing enzyme (%)=[1−(A−B)/(C−B)]*100
A: Peak area value of 20-HETE/peak area value of internal standard substance with addition of compound
B: Peak area value of 20-HETE/peak area value of internal standard substance without addition of compound and NADPH
C: Peak area value of 20-HETE/peak area value of internal standard substance without addition of compound
(3) Inhibition Test for Compound a and Compound B Disclosed in WO03/022821 Against 20-HETE Producing Enzymes Using Human Kidney Microsomes
For compound A and compound B disclosed in WO03/022821, which have been described above, the 50% inhibitory concentration (IC50 value) against 20-HETE producing enzymes was calculated according to the method described in Test Example 2.
On the other hand, as described above, in Test Example 2, nonradioactive arachidonic acid was used as a substrate for 20-HETE producing reaction, and the amount of 20-HETE produced was measured using LC-MS/MS. In this case, the concentration of arachidonic acid, the substrate, is 20 μM.
In recent years, it is recommended that the substrate concentration for calculating the IC50 value be set at the Km value (Assay Guidance Manual, Sittampalam et. al. (URL: http://www.ncbi.nlm.nih.gov/books/NBK53196/)). According to this, in Test Example 2 described above, human kidney microsomes were used to calculate the Km value, and the calculated Km value of 20 μM was set as the concentration of the substrate, arachidonic acid.

The next series addresses human CYP4V2 (Homo sapiens (Human), UniProt Q6ZWL3). Put plainly: CYP4V2 selectivity test. The series is classed as biochemical. To be noted: cell membrane fraction expressing human CYP4V2, 7 μM luciferine derivative, 40 minutes. As for the experimental part: (3) CYP4V2 Selectivity Test for Each Compound of the Present Invention
(§1) The reaction solution containing each compound [final concentration of 100 mM KPO4 (pH 7.4), 7 μM luciferine derivative, and 1 mM NADPH] was added to a cell membrane fraction (38 μg/mL protein) in which human CYP4V2 had been expressed. Following this, the cell membrane fraction was left to stand at room temperature for 40 minutes to perform an enzymatic reaction. After the reaction, a luciferine detection reagent was added, and the luminescence value was measured using a plate reader. By using that value, the percent inhibition of the enzymatic reaction of CYP4V2(%) was calculated according to the equation described below, and the 50% inhibitory concentration (IC50 value) for each compound was calculated. Percent inhibition of CYP4V2 enzyme (%)=[1−(A−B)/(C−B)]*100
(§2) A: Luminescence value with addition of compound
(§3) B: Luminescence value without addition of compound and enzyme
(§4) C: Luminescence value without addition of compound

The target of a further series is human CYP4A11 (Homo sapiens (Human), UniProt Q02928). Put plainly: Inhibition test against 20-HETE producing enzyme CYP4A11 (luciferine derivative, luminescence). The series is classed as biochemical. A digest of the protocol: (§5)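 E. coli membranes (100 μg/mL protein) expressing human enzyme, room temperature 60 min, luciferin-derivative luminescence; IC50 from % inhibition. CYP4F2: 50 mM KPO4 pH 7.4, 2.5 μM substrate, 1 mM NADPH. CYP4A11: 100 mM Tris-HCl pH 7.5, 60 μM substrate, NADP+/glucose 6-phosphate/G6PDH regenerating system, 3.3 mM MgCl2.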
Chain of human CYP4A11 (Q02928 5-519): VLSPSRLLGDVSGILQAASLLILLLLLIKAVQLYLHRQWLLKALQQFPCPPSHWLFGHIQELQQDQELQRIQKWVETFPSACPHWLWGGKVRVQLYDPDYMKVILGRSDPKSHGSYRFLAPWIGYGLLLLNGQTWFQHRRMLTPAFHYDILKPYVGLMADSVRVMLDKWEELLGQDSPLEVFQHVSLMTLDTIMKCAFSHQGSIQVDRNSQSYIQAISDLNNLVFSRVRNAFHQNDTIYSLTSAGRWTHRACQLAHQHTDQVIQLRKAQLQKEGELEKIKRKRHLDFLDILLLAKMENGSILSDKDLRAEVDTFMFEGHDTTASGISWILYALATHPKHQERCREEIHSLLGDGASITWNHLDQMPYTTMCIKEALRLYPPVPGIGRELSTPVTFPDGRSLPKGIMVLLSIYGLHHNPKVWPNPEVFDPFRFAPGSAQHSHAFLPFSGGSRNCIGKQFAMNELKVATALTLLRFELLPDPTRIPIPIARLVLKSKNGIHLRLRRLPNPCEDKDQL

A further series deals with human CYP4F22 (Homo sapiens (Human), UniProt Q6NT55). The series can be described thus: CYP4F22 selectivity test. The series is classed as biochemical. To be noted: cell membrane fraction expressing human CYP4F22, 14 μM luciferine derivative, 50 minutes. As for the experimental part: (1) CYP4F22 Selectivity Test for Each Compound of the Present Invention
Chain of human CYP4F22 (Q6NT55 whole entry): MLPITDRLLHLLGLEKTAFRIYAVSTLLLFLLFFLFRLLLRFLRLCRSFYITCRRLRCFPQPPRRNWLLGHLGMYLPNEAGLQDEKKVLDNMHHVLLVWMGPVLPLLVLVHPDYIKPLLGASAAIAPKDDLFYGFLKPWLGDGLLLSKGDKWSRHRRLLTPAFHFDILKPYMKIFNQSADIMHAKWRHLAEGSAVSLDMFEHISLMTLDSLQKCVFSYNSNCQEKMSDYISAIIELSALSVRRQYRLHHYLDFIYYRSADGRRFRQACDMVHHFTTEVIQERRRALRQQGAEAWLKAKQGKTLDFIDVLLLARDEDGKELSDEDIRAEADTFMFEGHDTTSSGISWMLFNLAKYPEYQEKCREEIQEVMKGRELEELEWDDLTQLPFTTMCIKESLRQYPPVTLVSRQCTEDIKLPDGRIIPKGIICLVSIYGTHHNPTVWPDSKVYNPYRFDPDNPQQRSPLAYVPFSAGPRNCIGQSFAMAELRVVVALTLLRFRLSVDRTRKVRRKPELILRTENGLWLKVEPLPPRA
as §1, with “7.4), 14” for “7.4), 7”, “fraction (30” for “fraction (38”, “human CYP4F22” for “human CYP4V2”, “for 50” for “for 40”, “of CYP4F22(%)” for “of CYP4V2(%)”, “of CYP4F22” for “of CYP4V2”
as §2, §3, §4

Another series has as its target human CYP4F2 (Homo sapiens (Human), UniProt P78329). Put plainly: Inhibition test against 20-HETE producing enzyme CYP4F2 (luciferine derivative, luminescence). The series is classed as biochemical. A digest of the protocol: as §5
Series [2] is described as follows: Evaluation test for in vivo stability (half-life in plasma after intravenous administration to rats). The conditions noted are these: rats (SD, male), 0.5 mg/kg, half-life in plasma from CL and Vdss. More on the design: species or system rats (Sprague-Dawley). As for the experimental part:
(1) Evaluation Test for In Vivo Stability of Each Compound of the Present Invention
Each compound was dissolved in an aqueous solution of 10% HP-β-CD (0.5 mg/mL), and intravenously administered to rats (Sprague-Dawley (SD), male, 7-week-old, fasted, dose: 0.5 mg/kg). Blood was collected from the tail vein at each time of blood collection, and the plasma was collected by centrifugation. Quantitative analysis of each compound in plasma was performed using LC-MS/MS. Half-life in plasma (t1/2eff) was calculated from clearance (CL) and distribution volume (Vdss) calculated through noncompartmental analysis with Phoenix WinNonlin (Certara, L.P.), according to the equation described below. t1/2eff=LN(2)/(CL/Vdss)

Where [3] appears, read: human CYP4A11, luciferine derivative, luminescence.
Where [4] appears, read: human CYP4F2, luciferine derivative, luminescence.
Where [5] appears, read: E. coli membrane fraction expressing human CYP4A11, 60 μM luciferine derivative, room temperature 60 minutes.
The mark [6] stands for this setting: E. coli membrane fraction expressing human CYP4F2, 2.5 μM luciferine derivative, room temperature 60 minutes.

Chain of human CYP4F2 (P78329 5-520): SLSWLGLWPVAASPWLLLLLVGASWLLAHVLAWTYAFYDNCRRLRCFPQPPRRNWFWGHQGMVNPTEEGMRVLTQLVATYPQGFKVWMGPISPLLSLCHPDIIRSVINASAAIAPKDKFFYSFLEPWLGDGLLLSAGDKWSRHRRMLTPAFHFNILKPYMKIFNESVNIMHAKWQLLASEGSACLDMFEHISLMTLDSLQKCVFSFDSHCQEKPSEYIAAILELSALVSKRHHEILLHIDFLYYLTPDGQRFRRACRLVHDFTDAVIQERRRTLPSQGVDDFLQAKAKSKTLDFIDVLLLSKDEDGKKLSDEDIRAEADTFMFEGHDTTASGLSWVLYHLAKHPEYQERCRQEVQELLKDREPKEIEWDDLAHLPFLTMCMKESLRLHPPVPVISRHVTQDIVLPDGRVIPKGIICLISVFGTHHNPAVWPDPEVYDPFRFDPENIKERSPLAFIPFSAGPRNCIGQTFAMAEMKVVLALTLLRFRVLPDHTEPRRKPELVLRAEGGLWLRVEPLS
Chain of human CYP4V2 (Q6ZWL3 whole entry): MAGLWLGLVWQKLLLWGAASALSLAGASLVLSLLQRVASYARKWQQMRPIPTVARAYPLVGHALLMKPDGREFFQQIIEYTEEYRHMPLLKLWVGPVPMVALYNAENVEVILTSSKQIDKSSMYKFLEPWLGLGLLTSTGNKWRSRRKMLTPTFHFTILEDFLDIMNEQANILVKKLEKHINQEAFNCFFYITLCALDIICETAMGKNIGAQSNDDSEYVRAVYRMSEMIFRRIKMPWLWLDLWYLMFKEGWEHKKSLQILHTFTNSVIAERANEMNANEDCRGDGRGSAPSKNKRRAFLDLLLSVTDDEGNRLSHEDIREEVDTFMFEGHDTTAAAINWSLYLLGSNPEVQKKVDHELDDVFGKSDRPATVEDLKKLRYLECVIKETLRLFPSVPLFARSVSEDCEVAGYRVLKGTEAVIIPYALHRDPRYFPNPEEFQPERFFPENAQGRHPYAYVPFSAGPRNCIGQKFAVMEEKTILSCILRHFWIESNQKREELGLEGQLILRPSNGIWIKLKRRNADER

`O=C(O)C1(CCCCCCCCOc2ccc(-c3ccn[nH]3)nc2)CS(=O)(=O)C1` [Example 73-1, 1,1-Dioxo-3-[8-[6-(1H-pyrazol-5-yl)pyridin-3-yl]oxyoctyl]thietane-3-carboxylic Acid]: the IC50 was 1.7 nM in series [1]; 660 nM at human CYP4V2; 160 nM on human CYP4A11 (setting [3]); 2300 nM at human CYP4F22; 12 nM on human CYP4F2 (setting [4]).

On to `O=C(O)C1CC1c1cccc(CCOc2ccc(-c3ccn[nH]3)nc2)c1` (stereo not shown) [Example 70-7], for which the concentration for half-maximal inhibition (IC50) in series [1] worked out at 16 nM; against human CYP4V2, 2900 nM; against human CYP4A11 (setting [3]), 50 nM; against human CYP4F22, 1400 nM; at human CYP4F2 (setting [4]), 320 nM.

For `O=C(O)[C@H]1C[C@@H]1c1cccc(CCOc2ccc(-c3ccn[nH]3)nc2)c1F` [Example 74-4], the IC50 amounted to 4.4 nM in series [1]; 2300 nM on human CYP4V2; 82 nM at human CYP4A11 (setting [3]); 480 nM against human CYP4F22; 58 nM against human CYP4F2 (setting [4]). This compound registered a t1/2eff in series [2] of 3.5 h.

In the case of `O=C(O)C1(OCCCCCCCOc2ccc(-c3ccn[nH]3)nc2)CCC1` [Example 72-2], the IC50 in series [1] was 4.7 nM; against human CYP4V2 it was 510 nM; against human CYP4A11 (setting [3]), 120 nM; on human CYP4F22, 2500 nM; against human CYP4F2 (setting [4]) it was 97 nM. The compound also came in with a t1/2eff in series [2] of 2.4 h.

As to `O=C(O)C1CC1c1cc(CCOc2ccc(-c3ccn[nH]3)nc2)ccc1F` (stereo not shown) [Example 74-2], the IC50 in series [1] was 20 nM; against human CYP4V2, 2300 nM; against human CYP4A11 (setting [3]), 53 nM; at human CYP4F22, 280 nM; on human CYP4F2 (setting [4]), 130 nM.

As to `CC(C)(OCCCCCCCOc1ccc(-c2ccn[nH]2)nc1)C(=O)O` [Example 15-1, 2-Methyl-2-[7-[[6-(1H-pyrazol-5-yl)-3-pyridinyl]oxy]heptoxy]propanoic Acid], the “inhibitory activities against 20-HETE producing enzymes compared to compound A and compound B” value in series [1] is “stronger inhibitory activities”. In addition, the IC50 stood at 18 nM in series [1]; 1000 nM at human CYP4V2; 120 nM at human CYP4A11 (setting [5]); 2900 nM at human CYP4F22; 220 nM on human CYP4F2 (setting [6]). This compound registered a t1/2eff in series [2] of 2.4 h.

For the compound `O=C(O)C1CC1c1ccc(CCOc2ccc(-c3ccn[nH]3)nc2)c(F)c1` (single isomer, unassigned) [Example 71-18], the IC50 in series [1] turned out to be 6 nM; on human CYP4V2, 2100 nM; against human CYP4A11 (setting [3]), 110 nM; against human CYP4F22, 1900 nM; at human CYP4F2 (setting [4]), 83 nM.

For `O=C(O)C1(OCCCCCCCOc2ccc(-c3ccn[nH]3)nc2)COC1` [Example 71-6], the IC50 in series [1] is 11 nM; against human CYP4V2, 1200 nM; against human CYP4A11 (setting [3]), 230 nM; at human CYP4F22 it was 370 nM; against human CYP4F2 (setting [4]) it was 100 nM.

For `O=C(O)[C@@H]1C[C@H]1c1cccc(CCOc2ccc(-c3ccn[nH]3)nc2)c1F` [Example 74-5], the IC50 in series [1] was 9.1 nM; on human CYP4V2, 5000 nM; on human CYP4A11 (setting [3]) it was 88 nM; against human CYP4F22 it was 3000 nM; against human CYP4F2 (setting [4]), 80 nM.

For the compound `O=C(O)C1CC1c1cccc(COc2ccc(-c3ccn[nH]3)nc2)c1F` (single isomer, unassigned) [Example 71-46], the IC50 in series [1] was 12 nM; against human CYP4V2 it was 620 nM; on human CYP4A11 (setting [3]), 19 nM; on human CYP4F22 it was 1300 nM; at human CYP4F2 (setting [4]), 240 nM. Moreover, in series [2], the t1/2eff worked out at 3.6 h.

In the case of `O=C(O)C1(CCCCCCCCOc2ccc(-c3ccn[nH]3)nc2)COC1` [Example 72-3], the IC50 came out at 4 nM in series [1]; 1500 nM against human CYP4V2; 130 nM at human CYP4A11 (setting [3]); 3800 nM at human CYP4F22; 43 nM against human CYP4F2 (setting [4]). Also, the t1/2eff in series [2] is on record as 1.4 h.

Regarding `O=C(O)C1COc2ccc(COc3ccc(-c4ccn[nH]4)nc3)cc2C1` (stereo not shown) [Example 1-68], in series [1], the “inhibitory activities against 20-HETE producing enzymes compared to compound A and compound B” value is given as “stronger inhibitory activities”. For the same compound, the values for the IC50 (in series [1]; against human CYP4A11 (setting [5]); on human CYP4F2 (setting [6])) were 26 nM, 28 nM and 640 nM, respectively.

`O=C(O)[C@@H]1C[C@@H]1c1ccc(CCOc2ccc(-c3ccn[nH]3)nc2)cc1` [Example 70-10-1]: the IC50 in series [1] is 6.4 nM; against human CYP4V2, 3300 nM; against human CYP4A11 (setting [3]) it was 160 nM; against human CYP4F22 it was 2300 nM; at human CYP4F2 (setting [4]) it was 120 nM.

By IC50 is commonly meant the concentration that gives 50% inhibition.

For the origin of these results see US11365192B2, “Pyridine compound substituted with azole” (TAISHO PHARMACEUTICAL CO., LTD., priority 2017, dated 2022).
